Reference: paper PMC4065032, “Biochemical Characterization of Quinolinic Acid Phosphoribosyltransferase from Mycobacterium tuberculosis H37Rv and Inhibition of Its Activity by Pyrazinamide” (PLoS ONE, 2014)
“And” between values parts separate entries of the source, which are not always exact repeats. Equal entries are not always repeated. Where two headings read alike, the source gives them in different places.

Experiments:
MtQAPRTase [1] = target: T1, MtQAPRTase (Mycobacterium tuberculosis, UniProt P9WJJ7); test: Inhibition of MtQAPRTase activity by PZA/POA (HPLC quantification of NAMN); format: biochemical, Mycobacterium tuberculosis H37Rv; set-up: Full-length nadC from M. tuberculosis H37Rv was inserted into the expression vector pET-30a; made in house; host or cells: E. coli BL21 (DE3), pET-30a; conditions: for Ki: read-out: Ki estimated from IC50 by web-based tool
T1 sequence (P9WJJ7 1-285): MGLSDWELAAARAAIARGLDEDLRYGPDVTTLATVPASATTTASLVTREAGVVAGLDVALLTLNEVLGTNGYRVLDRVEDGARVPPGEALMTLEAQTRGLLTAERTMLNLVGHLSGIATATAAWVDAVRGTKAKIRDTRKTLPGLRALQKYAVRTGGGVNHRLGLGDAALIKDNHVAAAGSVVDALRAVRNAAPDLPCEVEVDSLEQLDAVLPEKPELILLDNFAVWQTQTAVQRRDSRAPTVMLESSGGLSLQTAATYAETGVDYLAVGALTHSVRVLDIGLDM

MtQAPRTase [2] = target: T1, MtQAPRTase; test: PZA or POA added instead of QA or PRPP as substrate (HPLC); format: biochemical, Mycobacterium tuberculosis H37Rv; set-up: Full-length nadC from M. tuberculosis H37Rv was inserted into the expression vector pET-30a; made in house; host or cells: E. coli BL21 (DE3), pET-30a
WT MtQAPRTase = target: T2, WT MtQAPRTase (Mycobacterium tuberculosis, UniProt P9WJJ7); test: Kinetic parameters of MtQAPRTase (spectrophotometric assay at 266 nm); format: biochemical, Mycobacterium tuberculosis H37Rv
T2 sequence (P9WJJ7 1-285): T1 sequence (P9WJJ7 1-285)

MtQAPRTase [3] = target: T1, MtQAPRTase

NC(=O)c1cnccn1 [PZA, Pyrazinamide]
IC50 (MtQAPRTase [1]): 380 µM and 1370 µM | Ki (MtQAPRTase [1]; pH 6.2): 69.4 µM | Ki (MtQAPRTase [1]; pH 7.2): 19.2 µM | Use as substrate by MtQAPRTase (MtQAPRTase [2]): not substrates

O=C(O)c1cccnc1C(=O)O [QA, 2,3-pyridinedicarboxylic acid]
Km (WT MtQAPRTase; pH 7.2): 80 µM | kcat (WT MtQAPRTase; pH 7.2): 0.12 s^-1 and 0.12

[Ca+2].[Cl-].[Cl-] [Ca^2+ (CaCl2), CaCl2]
Relative Activity (MtQAPRTase [3]): 0% | Specific activity (MtQAPRTase [3]): 0 Unit/mg

[Cl-].[Cl-].[Mg+2] [Mg^2+ (MgCl2), MgCl2]
Relative Activity (MtQAPRTase [3]): 100% | Specific activity (MtQAPRTase [3]): 1.32 Unit/mg

O=C(O)c1cnccn1 [POA, Pyrazinoic acid]
IC50 (MtQAPRTase [1]): 3450 µM and > 20000 µM | Ki (MtQAPRTase [1]; pH 7.2): 175 µM | Use as substrate by MtQAPRTase (MtQAPRTase [2]): not substrates

[Cl-].[Cl-].[Zn+2] [Zn^2+ (ZnCl2), ZnCl2]
Relative Activity (MtQAPRTase [3]): 0% | Specific activity (MtQAPRTase [3]): 0 Unit/mg

[Cl][Fe][Cl] [Fe^2+ (FeCl2), FeCl2]
Relative Activity (MtQAPRTase [3]): 6% | Specific activity (MtQAPRTase [3]): 0.06 Unit/mg

O=P(O)(O)OC[C@H]1O[C@H](OP(=O)(O)OP(=O)(O)O)[C@H](O)[C@@H]1O [PRPP, 5-phosphoribosyl-1-pyrophosphate]
kcat (WT MtQAPRTase; varied substrate, other substrate fixed (QA 0.3 mM or PRPP 1.0 mM), pH 7.2, 37°C): 0.14 s⁻¹ | Km (WT MtQAPRTase; varied substrate, other substrate fixed (QA 0.3 mM or PRPP 1.0 mM), pH 7.2, 37°C, read-out: Km): 390 µM

[Cl][Mn][Cl] [Mn^2+ (MnCl2), MnCl2]
Relative Activity (MtQAPRTase [3]): 27% | Specific activity (MtQAPRTase [3]): 0.35 Unit/mg

[Cl-].[Cl-].[Co+2] [Co^2+ (CoCl2), CoCl2]
Relative Activity (MtQAPRTase [3]): 12% | Specific activity (MtQAPRTase [3]): 0.15 Unit/mg

O=S(=O)([O-])[O-].[Cu+2] [Cu^2+ (CuSO4), CuSO4]
Relative Activity (MtQAPRTase [3]): 0% | Specific activity (MtQAPRTase [3]): 0 Unit/mg
